Laboratory results as given in article PMC11079024, “Identification of a family of species-selective complex I inhibitors as potential anthelmintics” (Nature Communications, 2024).
Read-outs that look alike come from different tables or passages of the source.

Tests used:
[1] = biological target: C. elegans (N2) complex I (NADH:ubiquinone oxidoreductase) (Caenorhabditis elegans, UniProt P24887+Q93873+Q94360); assay: biochemical; type: biochemical; details: for Log IC50 C. elegans complex I: log10 of IC50 in µM
Summary of the method: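 Complex I rate: initial linear slope of A600 over 15 min, expressed as percent of solvent control. Triple freeze-thawed mitochondria (0.2 mg/mL) in KPi pH 7.5, BSA 3 mg/mL, NADH 80 μM, decylubiquinone 60 μM, DCIP 160 μM, antimycin A, KCN.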

[2] = biological target: B. taurus (heart) complex I (Bos taurus, UniProt P03887+P17694+P42026); assay: biochemical; type: biochemical; details: for IC50: B. taurus heart mitochondria, estimated from fitted dose-response curves, read-out: B. taurus Complex I IC50; for Log IC50 B. taurus complex I: log10 of IC50 in µM, B. taurus mitochondria
Summary of the method: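 Complex I activity followed as DCIP reduction (600 nm, 30 s reads, 15 min) with 80 μM NADH and 60 μM decylubiquinone in 25 mM KPi pH 7.5 containing 2 μM antimycin A and 2 mM KCN. Freeze-thawed mouse or bovine heart mitochondria at 0.2 mg/mL; initial-rate percent of solvent control, single-point 100 μM or dose-response.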

[3] = in vitro complex I dose response on C. elegans mitochondria, average of at least two biological replicates, fit in R (DRC), read-out: IC50 C. elegans complex I
[4] = wild-type (N2) mitochondria, read-out: C. elegans Complex I IC50
[5] = wild-type C. elegans mitochondria, estimated from fitted dose-response curves, read-out: C. elegans Complex I IC50

C. elegans (N2) complex I (NADH:ubiquinone oxidoreductase), sequence (Q94360 17-199): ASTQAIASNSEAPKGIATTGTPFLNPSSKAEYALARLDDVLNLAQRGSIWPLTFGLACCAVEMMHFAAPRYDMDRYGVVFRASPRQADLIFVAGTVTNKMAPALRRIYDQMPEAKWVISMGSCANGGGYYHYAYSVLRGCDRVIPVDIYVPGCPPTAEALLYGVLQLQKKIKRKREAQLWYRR
C. elegans (N2) complex I (NADH:ubiquinone oxidoreductase), sequence (P24887 whole entry): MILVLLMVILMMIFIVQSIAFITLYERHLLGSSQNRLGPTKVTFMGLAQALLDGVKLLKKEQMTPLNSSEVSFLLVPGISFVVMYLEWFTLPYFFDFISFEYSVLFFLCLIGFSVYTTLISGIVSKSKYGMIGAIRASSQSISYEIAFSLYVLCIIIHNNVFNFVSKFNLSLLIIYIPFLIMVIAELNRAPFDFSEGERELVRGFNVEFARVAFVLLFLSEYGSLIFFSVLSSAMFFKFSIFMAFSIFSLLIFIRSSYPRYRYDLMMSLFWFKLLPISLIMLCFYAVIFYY
C. elegans (N2) complex I (NADH:ubiquinone oxidoreductase), sequence (Q93873 31-482): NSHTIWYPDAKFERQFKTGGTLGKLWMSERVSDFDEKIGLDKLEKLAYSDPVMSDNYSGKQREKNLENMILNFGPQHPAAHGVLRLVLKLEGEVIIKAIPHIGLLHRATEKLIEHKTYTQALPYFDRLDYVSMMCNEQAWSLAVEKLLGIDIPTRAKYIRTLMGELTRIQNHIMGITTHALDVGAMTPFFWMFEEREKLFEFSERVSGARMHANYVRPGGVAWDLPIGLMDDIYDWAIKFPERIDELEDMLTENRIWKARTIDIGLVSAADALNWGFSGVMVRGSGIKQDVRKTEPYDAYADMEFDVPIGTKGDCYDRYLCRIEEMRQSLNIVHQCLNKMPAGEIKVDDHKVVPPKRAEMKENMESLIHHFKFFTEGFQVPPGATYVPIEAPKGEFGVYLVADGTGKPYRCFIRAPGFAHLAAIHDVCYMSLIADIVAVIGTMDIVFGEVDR
B. taurus (heart) complex I, sequence (P03887 whole entry): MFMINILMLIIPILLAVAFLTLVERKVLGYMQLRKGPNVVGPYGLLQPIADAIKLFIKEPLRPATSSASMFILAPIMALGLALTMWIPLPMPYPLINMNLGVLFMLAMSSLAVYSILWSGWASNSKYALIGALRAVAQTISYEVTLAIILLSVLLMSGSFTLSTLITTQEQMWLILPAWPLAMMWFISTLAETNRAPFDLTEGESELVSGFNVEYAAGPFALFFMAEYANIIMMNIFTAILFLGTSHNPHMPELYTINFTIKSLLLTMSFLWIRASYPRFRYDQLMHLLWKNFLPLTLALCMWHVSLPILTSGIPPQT
B. taurus (heart) complex I, sequence (P17694 34-463): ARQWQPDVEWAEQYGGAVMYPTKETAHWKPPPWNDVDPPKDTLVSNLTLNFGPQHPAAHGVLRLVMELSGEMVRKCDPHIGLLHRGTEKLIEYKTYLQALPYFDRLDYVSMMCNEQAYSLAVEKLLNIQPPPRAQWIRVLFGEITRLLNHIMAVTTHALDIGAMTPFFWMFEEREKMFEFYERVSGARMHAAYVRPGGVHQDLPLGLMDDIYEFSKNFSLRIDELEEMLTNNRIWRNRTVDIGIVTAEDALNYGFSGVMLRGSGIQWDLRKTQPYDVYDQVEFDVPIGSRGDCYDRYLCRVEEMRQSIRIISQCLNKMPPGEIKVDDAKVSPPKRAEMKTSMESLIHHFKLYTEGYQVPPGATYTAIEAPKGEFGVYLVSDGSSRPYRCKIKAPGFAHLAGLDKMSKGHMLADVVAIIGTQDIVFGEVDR
B. taurus (heart) complex I, sequence (P42026 38-216): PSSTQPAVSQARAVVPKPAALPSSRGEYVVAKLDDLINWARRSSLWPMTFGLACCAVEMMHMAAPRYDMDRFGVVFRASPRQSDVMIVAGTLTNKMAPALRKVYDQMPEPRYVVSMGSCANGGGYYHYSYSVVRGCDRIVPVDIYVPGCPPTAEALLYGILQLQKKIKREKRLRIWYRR

Cc1ccccc1OCCCCn1cnc2ccccc21 [Compound 7732524]
remaining activity at 0.0001 µM ([1]; C. elegans mitochondria, 0.0001 µM, Mean, read-out: in vitro complex I activity relative to solvent control): 109%
remaining activity at 0.0005 µM ([1]; C. elegans mitochondria, 0.0005 µM, Mean, read-out: in vitro complex I activity relative to solvent control): 117%
remaining activity at 0.001 µM ([1]; C. elegans mitochondria, 0.001 µM, Mean, read-out: in vitro complex I activity relative to solvent control): 115%
remaining activity at 0.0025 µM ([1]; C. elegans mitochondria, 0.0025 µM, Mean, read-out: in vitro complex I activity relative to solvent control): 106%
remaining activity at 0.005 µM ([1]; C. elegans mitochondria, 0.005 µM, Mean, read-out: in vitro complex I activity relative to solvent control): 87.1%
remaining activity at 0.013 µM ([1]; C. elegans mitochondria, 0.013 µM, Mean, read-out: in vitro complex I activity relative to solvent control): 95.4%
remaining activity at 0.025 µM ([1]; C. elegans mitochondria, 0.025 µM, Mean, read-out: in vitro complex I activity relative to solvent control): 84.9%
remaining activity at 0.063 µM ([1]; C. elegans mitochondria, 0.063 µM, Mean, read-out: in vitro complex I activity relative to solvent control): 60.5%
remaining activity at 0.063 µM ([1]; C. elegans mitochondria, 0.063 µM, single replicate, read-out: in vitro complex I activity relative to solvent control): 65%
remaining activity at 0.125 µM ([1]; C. elegans mitochondria, 0.125 µM, Mean, read-out: in vitro complex I activity relative to solvent control): 45.4%
remaining activity at 0.125 µM ([1]; C. elegans mitochondria, 0.125 µM, single replicate, read-out: in vitro complex I activity relative to solvent control): 44.7%
remaining activity at 0.313 µM ([1]; C. elegans mitochondria, 0.313 µM, Mean, read-out: in vitro complex I activity relative to solvent control): 25.3%
remaining activity at 0.313 µM ([1]; C. elegans mitochondria, 0.313 µM, single replicate, read-out: in vitro complex I activity relative to solvent control): 21%
remaining activity at 0.625 µM ([1]; C. elegans mitochondria, 0.625 µM, Mean, read-out: in vitro complex I activity relative to solvent control): 10.1%
remaining activity at 0.625 µM ([1]; C. elegans mitochondria, 0.625 µM, single replicate, read-out: in vitro complex I activity relative to solvent control): 12.2%
remaining activity at 1.5 µM ([1]; C. elegans mitochondria, 1.5 µM, Mean, read-out: in vitro complex I activity relative to solvent control): 2.78%
remaining activity at 3 µM ([1]; C. elegans mitochondria, 3 µM, Mean, read-out: in vitro complex I activity relative to solvent control): 0.645%
remaining activity at 15 µM ([1]; C. elegans mitochondria, 15 µM, Mean, read-out: in vitro complex I activity relative to solvent control): 0.827%
remaining activity at 37.5 µM ([1]; C. elegans mitochondria, 37.5 µM, Mean, read-out: in vitro complex I activity relative to solvent control): 0.871%
remaining activity at 75 µM ([1]; C. elegans mitochondria, 75 µM, Mean, read-out: in vitro complex I activity relative to solvent control): 6.44%
activity at 0.0001 µM ([1]; Dose 0.0001 µM, read-out: C. elegans mitochondrial complex I activity): 130%
activity at 0.0005 µM ([1]; Dose 0.0005 µM, read-out: C. elegans mitochondrial complex I activity): 145%
activity at 0.001 µM ([1]; Dose 0.001 µM, read-out: C. elegans mitochondrial complex I activity): 142%
activity at 0.0025 µM ([1]; Dose 0.0025 µM, read-out: C. elegans mitochondrial complex I activity): 138%
activity at 0.005 µM ([1]; Dose 0.005 µM, read-out: C. elegans mitochondrial complex I activity): 126%
activity at 0.013 µM ([1]; Dose 0.013 µM, read-out: C. elegans mitochondrial complex I activity): 120%
activity at 0.025 µM ([1]; Dose 0.025 µM, read-out: C. elegans mitochondrial complex I activity): 94.3%
activity at 0.063 µM ([1]; Dose 0.063 µM, read-out: C. elegans mitochondrial complex I activity): 78.2%
activity at 0.125 µM ([1]; Dose 0.125 µM, read-out: C. elegans mitochondrial complex I activity): 53.5%
activity at 0.313 µM ([1]; Dose 0.313 µM, read-out: C. elegans mitochondrial complex I activity): 30.1%
activity at 0.625 µM ([1]; Dose 0.625 µM, read-out: C. elegans mitochondrial complex I activity): 10.6%
activity at 1.5 µM ([1]; Dose 1.5 µM, read-out: C. elegans mitochondrial complex I activity): 3.27%
activity at 3 µM ([1]; Dose 3 µM, read-out: C. elegans mitochondrial complex I activity): 1.97%
activity at 15 µM ([1]; Dose 15 µM, read-out: C. elegans mitochondrial complex I activity): 1.08%
activity at 37.5 µM ([1]; Dose 37.5 µM, read-out: C. elegans mitochondrial complex I activity): 3.31%
activity at 75 µM ([1]; Dose 75 µM, read-out: C. elegans mitochondrial complex I activity): 6.44%
remaining activity at 0.0001 µM ([1]; dose 0.0001 µM, wild-type C. elegans, mean of replicates, read-out: in vitro complex I activity relative to solvent control, Mean): 109%
remaining activity at 0.0005 µM ([1]; dose 0.0005 µM, wild-type C. elegans, mean of replicates, read-out: in vitro complex I activity relative to solvent control, Mean): 117%
remaining activity at 0.001 µM ([1]; dose 0.001 µM, wild-type C. elegans, mean of replicates, read-out: in vitro complex I activity relative to solvent control, Mean): 115%
remaining activity at 0.0025 µM ([1]; dose 0.0025 µM, wild-type C. elegans, mean of replicates, read-out: in vitro complex I activity relative to solvent control, Mean): 106%
remaining activity at 0.005 µM ([1]; dose 0.005 µM, wild-type C. elegans, mean of replicates, read-out: in vitro complex I activity relative to solvent control, Mean): 87.1%
remaining activity at 0.013 µM ([1]; dose 0.013 µM, wild-type C. elegans, mean of replicates, read-out: in vitro complex I activity relative to solvent control, Mean): 95.4%
remaining activity at 0.025 µM ([1]; dose 0.025 µM, wild-type C. elegans, mean of replicates, read-out: in vitro complex I activity relative to solvent control, Mean): 84.9%
remaining activity at 0.063 µM ([1]; dose 0.063 µM, wild-type C. elegans, mean of replicates, read-out: in vitro complex I activity relative to solvent control, Mean): 60.5%
remaining activity at 0.063 µM ([1]; dose 0.063 µM, wild-type C. elegans, single replicate, read-out: in vitro complex I activity relative to solvent control, individual replicate): 65%
remaining activity at 0.125 µM ([1]; dose 0.125 µM, wild-type C. elegans, mean of replicates, read-out: in vitro complex I activity relative to solvent control, Mean): 45.4%
remaining activity at 0.125 µM ([1]; dose 0.125 µM, wild-type C. elegans, single replicate, read-out: in vitro complex I activity relative to solvent control, individual replicate): 44.7%
remaining activity at 0.313 µM ([1]; dose 0.313 µM, wild-type C. elegans, mean of replicates, read-out: in vitro complex I activity relative to solvent control, Mean): 25.3%
remaining activity at 0.313 µM ([1]; dose 0.313 µM, wild-type C. elegans, single replicate, read-out: in vitro complex I activity relative to solvent control, individual replicate): 21%
remaining activity at 0.625 µM ([1]; dose 0.625 µM, wild-type C. elegans, mean of replicates, read-out: in vitro complex I activity relative to solvent control, Mean): 10.1%
remaining activity at 0.625 µM ([1]; dose 0.625 µM, wild-type C. elegans, single replicate, read-out: in vitro complex I activity relative to solvent control, individual replicate): 12.2%
remaining activity at 1.5 µM ([1]; dose 1.5 µM, wild-type C. elegans, mean of replicates, read-out: in vitro complex I activity relative to solvent control, Mean): 2.78%
remaining activity at 3 µM ([1]; dose 3 µM, wild-type C. elegans, mean of replicates, read-out: in vitro complex I activity relative to solvent control, Mean): 0.645%
remaining activity at 15 µM ([1]; dose 15 µM, wild-type C. elegans, mean of replicates, read-out: in vitro complex I activity relative to solvent control, Mean): 0.827%
remaining activity at 37.5 µM ([1]; dose 37.5 µM, wild-type C. elegans, mean of replicates, read-out: in vitro complex I activity relative to solvent control, Mean): 0.871%
remaining activity at 75 µM ([1]; dose 75 µM, wild-type C. elegans, mean of replicates, read-out: in vitro complex I activity relative to solvent control, Mean): 6.44%
IC50 [1, 3]: 140 nM
Log IC50 C. elegans complex I ([1]; C. elegans mitochondria): -0.85 µM
IC50 [1, 4]: 140 nM
IC50 ([1]; wild-type (N2) mitochondria, read-out: C. elegans complex I IC50): 104 nM
IC50 [1, 5]: 140 nM
IC50 [2]: 310 nM
activity at 0.0001 µM ([2]; Dose 0.0001 µM, read-out: B. taurus mitochondrial complex I activity): 96.6%
activity at 0.0005 µM ([2]; Dose 0.0005 µM, read-out: B. taurus mitochondrial complex I activity): 102%
activity at 0.001 µM ([2]; Dose 0.001 µM, read-out: B. taurus mitochondrial complex I activity): 97%
activity at 0.0025 µM ([2]; Dose 0.0025 µM, read-out: B. taurus mitochondrial complex I activity): 93.8%
activity at 0.005 µM ([2]; Dose 0.005 µM, read-out: B. taurus mitochondrial complex I activity): 78.2%
activity at 0.013 µM ([2]; Dose 0.013 µM, read-out: B. taurus mitochondrial complex I activity): 91.3%
activity at 0.025 µM ([2]; Dose 0.025 µM, read-out: B. taurus mitochondrial complex I activity): 85.2%
activity at 0.063 µM ([2]; Dose 0.063 µM, read-out: B. taurus mitochondrial complex I activity): 72.1%
activity at 0.125 µM ([2]; Dose 0.125 µM, read-out: B. taurus mitochondrial complex I activity): 69.1%
activity at 0.313 µM ([2]; Dose 0.313 µM, read-out: B. taurus mitochondrial complex I activity): 48.9%
activity at 0.625 µM ([2]; Dose 0.625 µM, read-out: B. taurus mitochondrial complex I activity): 30.4%
activity at 1.5 µM ([2]; Dose 1.5 µM, read-out: B. taurus mitochondrial complex I activity): 15.7%
activity at 3 µM ([2]; Dose 3 µM, read-out: B. taurus mitochondrial complex I activity): 9.12%
activity at 15 µM ([2]; Dose 15 µM, read-out: B. taurus mitochondrial complex I activity): 0.75%
activity at 37.5 µM ([2]; Dose 37.5 µM, read-out: B. taurus mitochondrial complex I activity): 1.46%
activity at 75 µM ([2]; Dose 75 µM, read-out: B. taurus mitochondrial complex I activity): 1.41%
Log IC50 B. taurus complex I [2]: -0.51 µM

Cc1ccc2nc(C(C)c3ccc(CC(C)C)cc3)[nH]c2c1 (stereo not shown) [STL482096]
IC50 [1, 3]: 910 nM
Log IC50 C. elegans complex I ([1]; C. elegans mitochondria): -0.04 µM
IC50 [1, 4]: 910 nM
IC50 [1, 5]: 910 nM
IC50 [2]: 12300 nM
Log IC50 B. taurus complex I [2]: 1.09 µM
